Test results published in publication PMC11842024, “Reversible male contraception by targeted inhibition of serine/threonine kinase 33” (Science (New York, N.Y.), 2024).
Where two headings read alike, the source gives them in different places.

Assay: Pharmacokinetics (PK) of CDD-2807 in mice
Assay type: in vivo
Details: plasma; for AUC(0-inf) / AUC(0-t) / Cmax / Tmax / MRT inf / half-life: male, C57BL/6NJ, mouse; for MRT inf: read-out: MRT0-∞
Procedure: Pharmacokinetics (PK) of CDD-2807 in mice. The pharmacokinetic studies (72) of CDD-2807 were performed at three doses via intraperitoneal (i.p.) injection and oral (p.o.) administration.
CDD-2807 was dissolved in 10% Captisol containing 5% DMSO to prepare the solutions of 0.5 mg/mL, 2.5 mg/mL and 5.0 mg/mL. Twelve male mice (strain: C57BL/6NJ, 8−12 weeks) were divided equally and randomly into 4 groups (n = 3 for each dose). One group of mice were administered 5 mg/kg CDD-2807 (i.p., 10 µL/g of 0.5 mg/mL solution), the second group 25 mg/kg CDD-2807 (i.p., 10 µL/g of 2.5 mg/mL solution), the third group 5 mg/kg CDD-2807 (p.o., 10 µL/g of 0.5 mg/mL solution), and the fourth group 50 mg/kg CDD-2807 (p.o., 10 µL/g of 5.0 mg/mL solution). At 0, 5, 10, 15, 30 min, 1, 2, 4, 6, 8, 24 h post-dose, around 20 µL of blood was collected from the tail vein and anti-coagulated by heparin. The blood samples were centrifuged at 2000 g for 3 min at 4°C, and the plasma samples were transferred to tubes and stored at −80°C before analysis. All the samples were analyzed by the Thermo TSQ Quantis MS coupled with a Thermo Vanquish UHPLC (San Jose, CA). CDD-2807 was separated on a Luna C18 column (1 mm × 50 mm, 1.6 µm, Phenomenex, Torrance, CA), and eluted by a water-acetonitrile mobile phase system (both containing 0.1% formic acid, v/v) at the flow rate of 0.15 mL/min. CDD-2807 was monitored under the SRM mode coupled with a positive ESI source. The SRM ion pairs were 447→321 for CDD-2807. The ion spray voltage was set at 3500 V. High-purity nitrogen was used as the sheath gas (35 arbitrary unit), auxiliary gas (7 arbitrary unit), and high-purity argon was used as the collision gas. The temperatures of the ion transfer tube and the vaporizer were set at 300°C and 275°C, respectively. The concentration of CDD-2807 in plasma was quantified using individual calibration curves. The calibration curve was regressed with a weight of 1/x2 with high linearity (r2 >0.99). PK parameters, including half-time (t1/2), area under the plasma concentration– time curve from zero to infinity (AUC0–∞), clearance normalized by the bioavailability (CL/F), volume of distribution normalized by the bioavailability (Vd/F), and the mean residence time (MRT), were calculated by WinNonlin software (Certara, Princeton, NJ) by noncompartmental analysis. The plasma concentration–time curves were plotted in GraphPad Prism 9 (San Diego, […]

[1] = po, p.o. administration 5 mg/kg
[2] = po, p.o. administration 50 mg/kg

## O=C(c1ccc2[nH]nc(C#Cc3ccccc3-c3ccccc3)c2c1)N1CC2(CCCNC2)C1 [CDD-2807]
ip, i.p. injection 5 mg/kg
  AUC(0-inf): 11.2 ± 1.11 µM·h
  AUC(0-t): 9.46 ± 1.47 µM·h
  Cmax: 2950 ± 640 nM
  Tmax: 0.33 ± 0.14 h
  MRT inf: 11.1 ± 4.43 h
ip, i.p. injection 5 mg/kg, read-out: t1/2 (converted)
  half-life: 11.9 ± 4.38 h
ip, i.p. injection 25 mg/kg
  AUC(0-inf): 67.7 ± 12.4 µM·h
  AUC(0-t): 55.5 ± 5.42 µM·h
  Cmax: 11900 ± 400 nM
  Tmax: 0.33 ± 0.14 h
  MRT inf: 12.2 ± 3.8 h
ip, i.p. injection 25 mg/kg, read-out: t1/2 (converted)
  half-life: 11.3 ± 3.41 h
ip, delivered intraperitoneally, read-out: plasma t1/2
  half-life: > 11 h
[1]
  AUC(0-inf): 1.85 ± 0.66 µM·h
  AUC(0-t): 0.71 ± 0.07 µM·h
  Cmax: 60 ± 20 nM
  Tmax: 1.03 ± 0.96 h
  MRT inf: 51.2 ± 28.9 h
po, p.o. administration 5 mg/kg, read-out: t1/2 (converted)
  half-life: 36.1 ± 19.9 h
[2]
  AUC(0-inf): 2.47 ± 0.34 µM·h
  AUC(0-t): 1.88 ± 0.36 µM·h
  Cmax: 180 ± 90 nM
  Tmax: 2.67 ± 1.15 h
  MRT inf: 16.5 ± 2.8 h
po, p.o. administration 50 mg/kg, read-out: t1/2 (converted)
  half-life: 12.6 ± 1.5 h
p.o. administration 5 mg/kg
  CL/F: 2.91 ± 0.87 mg/h/µM/kg
  Vd/F: 134.88 ± 26.14 mg/µM/kg
p.o. administration 50 mg/kg
  CL/F: 20.52 ± 3.02 mg/h/µM/kg
  Vd/F: 376.76 ± 89.83 mg/µM/kg
